# In patent publication EP0615756B1 (priority 1993, dated 1994):
# Structures can show the parent of a compound that is named as a salt. Where two headings read alike, the source gives them in different places.
# Columns and labels:
# Sprague-Dawley rats = test: Rat cold ethanol tail-flick test; assay type: in vivo; conditions: for % Analgesic effect 10% / % Analgesic effect 20% / % Analgesic effect 50%: 25 micromole per kg, intramuscularly
# [1] = cited from earlier work
# [2] = Plasma concentration after intramuscular injection (HPLC) in the paw pressure study; conditions: for half-life: rabbit, plasma, im
# [3] = tested on: New Zealand white rabbits; test: Paw pressure test; assay type: in vivo; conditions: Figure 20
# [4] = Percutaneous transport study in modified Franz diffusion cells; conditions: 37 °C
# [5] = Figure 15; between 17 and 28 hours, p<0.05
# [6] = in sesame oil, duration in days
# [7] = Anesthesiology, vol.74, 53, 1991
structure (smiles),measurement,setting,value
CCCCCCC(=O)Oc1ccc2c3c1O[C@H]1[C@@H](O)CC[C@@]4(O)[C@@H](C2)N(CC2CCC2)CC[C@]314 [nalbuphine enanthate],% Analgesic effect 10%,Sprague-Dawley rats; [6],3.6 D
same,% Analgesic effect 20%,Sprague-Dawley rats; [6],3.4 D
same,% Analgesic effect 50%,Sprague-Dawley rats; [6],3.0 D
CCC(=O)Oc1ccc2c3c1O[C@H]1[C@@H](O)CC[C@@]4(O)[C@@H](C2)N(CC2CCC2)CC[C@]314 [nalbuphine propionate],% Analgesic effect 10%,Sprague-Dawley rats; duration in hours,12 H
same,% Analgesic effect 20%,Sprague-Dawley rats; duration in hours,11 H
same,% Analgesic effect 50%,Sprague-Dawley rats; duration in hours,10 H
same,50% analgesic effect,Sprague-Dawley rats; table 2,10 h
CO[C@]12CC[C@@]3(C[C@@H]1[C@](C)(O)C(C)(C)C)[C@H]1Cc4ccc(O)c5c4[C@@]3(CCN1CC1CC1)[C@H]2O5 [buprenorphine],dose needed to elicit the same analgesic effect,[1]; [7],0.3 mg
O=C(Oc1ccc2c3c1O[C@H]1[C@@H](O)CC[C@@]4(O)[C@@H](C2)N(CC2CCC2)CC[C@]314)c1ccccc1 [nalbuphine benzoate],% Analgesic effect 10%,Sprague-Dawley rats; [6],4.0 D
same,% Analgesic effect 20%,Sprague-Dawley rats; [6],4.0 D
same,% Analgesic effect 50%,Sprague-Dawley rats; [6],3.5 D
CC(C)(C)C(=O)Oc1ccc2c3c1O[C@H]1[C@@H](O)CC[C@@]4(O)[C@@H](C2)N(CC2CCC2)CC[C@]314 [nalbuphine pivalate],% Analgesic effect 10%,Sprague-Dawley rats; [6],3.8 D
same,% Analgesic effect 20%,Sprague-Dawley rats; [6],3.6 D
same,% Analgesic effect 50%,Sprague-Dawley rats; [6],3.2 D
"Oc1ccc2c3c1O[C@H]1[C@@H](O)CC[C@@]4(O)[C@@H](C2)N(CC2CCC2)CC[C@]314 [nalbuphine hydrochloride, reference compound]",half-life,[2],0.85 h
same,analgesic effect for intramuscular injection (duration),[3]; 10 mg/kg,45 min
same,% Analgesic effect 10%,Sprague-Dawley rats; duration in hours,5.0 H
same,% Analgesic effect 20%,Sprague-Dawley rats; duration in hours,4.4 H
same,% Analgesic effect 50%,Sprague-Dawley rats; duration in hours,2.5 H
same,10% analgesic effect,"Sprague-Dawley rats; rats, intramuscular injection",2.4 h
same,20% analgesic effect,"Sprague-Dawley rats; rats, intramuscular injection",2.1 h
same,50% analgesic effect,"Sprague-Dawley rats; rats, intramuscular injection, 25 micromole/kg",1.1 h
same,10% analgesic effect,Sprague-Dawley rats; table 2,12 h
same,50% analgesic effect,Sprague-Dawley rats; table 2,2.5 h
CN1CC[C@]23c4c5ccc(O)c4O[C@H]2[C@@H](O)C=C[C@H]3[C@H]1C5 [morphine],dose needed to elicit the same analgesic effect,[1]; in vivo,10 mg
CCCCCCCCCC(=O)Oc1ccc2c3c1O[C@H]1[C@@H](O)CC[C@@]4(O)[C@@H](C2)N(CC2CCC2)CC[C@]314 [nalbuphine decanoate],half-life,[2]; […],26 h
same,increase of duration compared with nalbuphine hydrochloride,"[2]; rabbits, Figure 19",30 times
same,cumulative amount,"[4]; under 24 hours, 5% nalbuphine decanoate in a jel of 2% CMC Na",1.04±0.30 µ g/cm^2
same,cumulative amount,"[4]; under 24 hours, jell containing 10% terpineol (5% nalbuphine decanoate, 2% CMC Na)",3.31±0.45 µg/cm^2
same,cumulative amount,"[4]; under 48 hours, 5% nalbuphine decanoate in a jel of 2% CMC Na",1.67±0.38 µg/cm^2
same,cumulative amount,"[4]; under 48 hours, jell containing 10% terpineol (5% nalbuphine decanoate, 2% CMC Na)",5.78±0.81 µ g/cm^2
same,cumulative amount,"[4]; under 72 hours, 5% nalbuphine decanoate in a jel of 2% CMC Na",3.17±0.35 µ g/cm^2
same,cumulative amount,"[4]; under 72 hours, jell containing 10% terpineol (5% nalbuphine decanoate, 2% CMC Na)",9.87±1.44 µg/cm^2
same,analgesic effect for intramuscular injection (duration),[3]; 0.,1080 min
same,% Analgesic effect 10%,Sprague-Dawley rats; [6],8.2 D
same,% Analgesic effect 20%,Sprague-Dawley rats; [6],7.5 D
same,% Analgesic effect 50%,Sprague-Dawley rats; [6],6.7 D
same,10% analgesic effect,"Sprague-Dawley rats; table 2, longest duration",197 h
same,50% analgesic effect,"Sprague-Dawley rats; table 2, longest duration",161 h
Oc1ccc2c(c1)[C@@]13CCCC[C@@]1(O)[C@@H](C2)N(CC1CCC1)CC3 [butorphanol],dose needed to elicit the same analgesic effect,[1]; [7],2 mg
Oc1ccc2c3c1O[C@H]1[C@@H](O)CC[C@@]4(O)[C@@H](C2)N(CC2CCC2)CC[C@]314 [nalbuphine],amount of released nalbuphine free base,[5],less in preparations with sesame oil than with peanut oil ester and the control
